Source: US11179452B2, “Antigen specific multi epitope vaccines” (priority 2006, dated 2021)
No end group written: not given here.

Experiments:
Format in all cases: cell-based, human
PBL [1] = experiment: Proliferation of PBL, DC indirect presentation (peptide-pulsed autologous DC); settings: for IS (SI of the peptides as indicated in Table 7): one out of five experiments; for IS (SI of the peptides as indicated in Table 7) / Optimal dose via DC: six donors; for Optimal dose via DC: optimal dose required for PBL activation; for Optimal dose via DC / Peak of Proliferation (Hours) via DC: average of 5 experiments; for Peak of Proliferation (Hours) via DC: visual inspection by light microscopy daily during 5 days
Description: (§1) Human PBMC were separated from buffy coat samples of naive donors using Ficoll UNI-SEPmaxi tube. Separated cells were suspended in RPMI medium supplemented with 10% FCS, L-Glutamine, Sodium Pyruvate, MEM-EAGLE non-essential amino-acids, HEPES and Gentamycin Sulphate (Bet-Haemek Industries, IL) and cultivated for 4 h at 37° C. in a culture dish (Corning 150 mm×25 mm). Adherent cells were collected and cultured for 7 days in serum free DCCM-1 medium supplemented with L-Glutamine, huIL-4 (1000 IU/ml) (Cytolab IL) and GM-CSF-80 ug/ml (Cytolab IL). On day seven floating cells were collected and loaded with 50 ug/ml of examined peptide for 18 h at 37° C.
(§2) Proliferation analysis was conducted in three different methods. In all three methods, plates were cultured for 3-5 days under visual control and then 0.5 […]Cu/well of 3[H] (Amersham) was added for additional culture of to 18 h at 37° C. In the last step, plates were harvested and the radioactive counts were measured in a □ counter. • 1. DC indirect presentation: In the first method, 100 µl of 2×10^6 thawed PBL were placed in U-shape Bottom 96 well plate (Nunc) with RPMI medium supplemented with 5% H AB serum, L-Glutamine, Sodium Pyruvate, MEM-EAGLE non-essential amino-acids, HEPES and Gentamycin. At the next stage 100 µl of 25×10^4 peptide-pulsed DC were added to each three wells of PBL and underwent proliferation analysis as described above. • 2. PBL direct presentation: In the 2nd method, 100 µl of 2×10^6 PBL were placed in Flat Bottom 96 well plates (Corning) and stimulated with different concentrations (0.05 ug/ml-2 ug/ml) of peptides. In the next step the cells underwent proliferation analysis as described above. • 3. PBMC direct presentation: In third method PNMC were used under similar conditions as described for the second method.
In the first set of experiments, the 21mer ImMucin, its different 9mer epitopes and other control epitopes (Table 3) were evaluated in proliferation assays with the aim of finding their optimal mode of presentation, stimulated dose as well as their peak of activity (time wise).
To evaluate the most efficient method for priming of PBLs with the different peptides, the following methods were compared:
a. In-direct presentation of the peptide via Autologues-pulsed DC
(§3) Five experiments were performed according to the protocol described in material and methods with buffy-coat enriched PBLs obtained from six different naive donors (obtained from the Israeli blood bank).

PBL [2] = experiment: Proliferation of PBL, direct presentation of peptide without APC; settings: for Optimal dose Direct no APC: optimal dose required for PBL activation, six donors; for Optimal dose Direct no APC / Peak of Proliferation (Hours) Direct no APC: average of 5 experiments; for Peak of Proliferation (Hours) Direct no APC: visual inspection daily during 5 days
Description: In all three methods, plates were cultured for 3-5 days under visual control and then 0.5 □Cu/well of 3[H] (Amersham) was added for additional culture of to 18 h at 37° C. […] DC indirect presentation: In the first method, 100 µl of 2×10^6 thawed PBL were placed in U-shape Bottom 96 well plate (Nunc) with RPMI medium supplemented with 5% H AB serum, L-Glutamine, Sodium Pyruvate, MEM-EAGLE non-essential amino-acids, HEPES and Gentamycin. At the next stage 100 µl of 25×10^4 peptide-pulsed DC were added to each three wells of PBL and underwent proliferation analysis as described above. • 2. PBL direct presentation: In the 2nd method, 100 µl of 2×10^6 PBL were placed in Flat Bottom 96 well plates (Corning) and stimulated with different concentrations (0.05 ug/ml-2 ug/ml) of peptides. In the next step the cells underwent proliferation analysis as described above. • 3. PBMC direct presentation: In third method PNMC were used under similar conditions as described for the second method.
Direct presentation of peptides to PBL without any APC

PBMC = experiment: Proliferation, direct presentation of peptide via PBMC (monocytes); settings: for PBL Index of stimulation (SI) via PBMC: naive donors, representative of 5 experiments; for Peak of Proliferation (Hours) via PBMC: visual inspection daily during 5 days
Description: as §2
b. Direct presentation of the peptides via PBMC i.e. monocytes
as §3

PBL [3] = experiment: ELISA of cytokine secretion by PBL stimulated once with peptide-pulsed DC; settings: peptide DC ratio 16:1, one out of five experiments, six donors
Description: as §1
(§4) Cytokine release was studied during the culture of stimulated T-cells. The evaluated samples were collected from the T cell culture medium on day 2, 3, and 5 and stored until use at −20° C.
(§5) […] of the selected capture antibody (e.g. anti-Hu IFN-Gamma, or anti-Hu TNF-alfa or anti IL-2) were added to each well at the final concentration of 5 μg/ml in PBS. Plates were incubated for 2 h at R.T. or over night at 4° C. Next, […] of blocking solution were added for an incubation of 2 h at R.T. […] of evaluated samples were added in duplicate into 2 wells for 2 hours at RT. After 2 h of incubation at R.T plates were washed λ4 times in washing solution. In the next step, a Biotin-conjugated detection antibody (relevant to coated antibody) was added at a final concentration of 10 μg/ml in total volume of 100 μl for 1 h at R.T. Finally, 100 μl/well working dilution (1:10000 in Blocker solution) of Streptavidin-HRP were added to each well and incubated for 1 h at R.T.
(§6) Plates were washed λ6 times with PBS-Tween (0.4%) and 100 μl/well of TMB/E Solution (CHEMICON, Catalog #ES001) was added. The plates were then exposed until blue color appeared in the wells of the positive control and no color was detected in the blank wells. To stop the color reaction, 50 μl/well of 10% of Sulfuric acid was added. The plates were counted in ELISA-Reader using a 450 nm filter.

[4] = tested on: ImMucin specific T-cell subpopulation; experiment: Proliferation of the ImMucin-specific T-cell subpopulation after three stimulations; settings: one out of two experiments, four donors
Excerpt: (§7) Thawed PBLs underwent 1st stimulation with ImMucin pulsed Autologues DC at a ratio of 20:1 and cultured for 7 days in dedicated T cell Medium. T cell medium contained RPMI medium supplemented with 10% FCS, L-Glutamine, Sodium Pyruvate, MEM-EAGLE non-essential amino-acids, HEPES and Gentamycin Sulphate (Bet-Haemek Industries, IL) as well as with 50 IU/ml of recombinant IL-7 (Cytolab IL). For the second stimulation, PBL were transferred to adherent autologues ImMucin-pulsed PBMC and cultured for additional 5 days in T cell Medium. At the end of the 5 days, medium was partial replaced with fresh medium containing 1 ug/ml of ImMucin and 50 IU/ml IL-2 for a third stimulation of 48 h at 37° C. Following the last stimulation ImMucin T cell line was checked for immune activation properties.
as §2
(§8) For that purpose, an enriched ImMucin-specific T cell subpopulation was produced via repeated stimulation with ImMucin. The specificity of the subpopulation for ImMucin, as well as to the other VXL epitopes, was examined using proliferation assays, cytokine release assays, FACS analysis in which the percentage and type of cells enriched during the enrichment process was analyzed, and using a CTL assay against selected target cells.
(§9) For producing the specific T cell subpopulation PBL were stimulated three times for 7, 5 and 2 days with ImMucin presented via DC and PBMC. Following the 3rd stimulation the cells were evaluated against the different VXL epitopes.

[5] = tested on: T-Cell specific subpopulation (Clones); experiment: ELISA of cytokine secretion by the T-cell specific subpopulation (clones) stimulated with peptides; settings: two experiments, four donors
Excerpt: as §7, §4, §5, §6, §8, §9

[6] = average of two healthy donors (Table 11)
[7] = naive donors, CPM sample / CPM control, representative of 5 experiments
[8] = naive donors, representative of 5 experiments

| Sequence | PBL Index of stimulation (SI) via DC (PBL [1]; [6]) | PBL Index of stimulation (SI) Direct no APC (PBL [2]; [6]) | PBL Index of stimulation (SI) via DC (PBL [1]; [7]) | Optimal dose via DC (PBL [1]) | Peak of Proliferation (Hours) via DC (PBL [1]) | PBL Index of stimulation (SI) Direct no APC (PBL [2]; [8]) | Optimal dose Direct no APC (PBL [2]) | Peak of Proliferation (Hours) Direct no APC (PBL [2]) | PBL Index of stimulation (SI) via PBMC (PBMC) | Peak of Proliferation (Hours) via PBMC (PBMC; average of 5 experiments) | IFN-gamma (PBL [3]) | TNF-Alfa (PBL [3]) | IS (Average) [4] | IS (Range) [4] | IL-2 % of clones [5] | IL-2 Range [5] | INF-gamma % of clones [5] | INF-gamma Range [5] | TNF-Alfa % of clones [5] | TNF-Alfa Range [5] | also measured |
| --- | --- | --- | --- | --- | --- | --- | --- | --- | --- | --- | --- | --- | --- | --- | --- | --- | --- | --- | --- | --- | --- |
| PADREAGVAA WTLKAAA (PADREAGVAAWTLKAAA) [VXL-14, reference compound] | 2.94 | 0 |  |  |  |  |  |  |  |  |  |  |  |  |  |  |  |  |  |  |  |
| SPFFLLLLL [VXL-5, SPFFLLLLL] |  |  | 3.73 | 12.5-25 × × 10e6/well | 48-72 h^ | 0 | No Influence | No proliferation | 1.8 | 48-72 h^ | 0 ng/mL | 14.8 ng/mL | 3.575 | 2.75-4.4 | 0% | 0 ng/mL | 33% | 2.75 to 5.5 ng/mL | 50% | 3.84 to 9.2 ng/mL | IS (SI of the peptides as indicated in Table 7) (PBL [1]): 3.74; TNF-Alfa (PBL [3]; listed as VXL5): highest cytokine release |
| STPPVHNV [VXL-6, STPPVHNV, reference compound] | 1.44 | 0 | 1.76 | 12.5-25 × × 10e6/well | 120 h | 0 | No Influence | No proliferation | 1.53 | 120 h | 0 ng/mL | 0 ng/mL | 1.125 | 1-1.25 | 0% | 0 ng/mL | 8.3% | 3.25 ng/mL | 50% | 7.56 to 11.4 ng/mL | Optimal dose via PBMC (PBMC; optimal dose required for PBL activation, average of 5 experiments, six donors): 0.05 to 1 µg/mL; IL-2 (PBL [3]): 0 ng/mL |
| TQSPFFLLL [VXL-4, TQSPFFLLL] |  |  | 3.74 | 12.5-25 × × 10e6/well | 72-96 h^ | 0 | No Influence | No proliferation | 1.45 | 72-96 h^ | 0 ng/mL | 17.1 ng/mL | 2.665 | 2.4-2.93 | 33% | 3.8 to 8.7 ng/mL | 33% | 2.6 to 8.4 ng/mL | 58% | 3.1 to 9.8 ng/mL | IS (SI of the peptides as indicated in Table 7) (PBL [1]): 3.4; IL-2 (PBL [3]): 0 ng/mL; TNF-Alfa (PBL [3]; listed as VXL4): highest cytokine release; IL-2 Range ng/ml ([5]; listed as VXL4): high; INF-gamma Range ng/ml ([5]; listed as VXL4): high |
